How the values were obtained:
[1] = system: HUMAN PLATELET AGGREGATION; experiment: Platelet aggregation assay (ADP-initiated, fibrinogen-dependent, Chronolog aggregometer); type: cell-based; conditions: inhibition of rate of human platelet aggregation by 50%; washed platelets 2 x 10⁸/ml, fibrinogen 100 µg/mL, Ca²⁺ 1 mM, 10 µM ADP, 37°C; platelets from 2-4 donors, duplicate; read-out: IC₅₀(µM) (95% CONFIDENCE LIMITS)
Protocol: Platelet aggregation was measured at 37°C in a Chronolog aggregometer. The reaction mixture contained washed platelets (2 x 10⁸/ml), fibrinogen (100 µg/mL), Ca²⁺ (1 mM), and the platelet aggregation inhibitor fraction to be tested. The aggregation was initiated by adding 10 µM ADP 1 min after the other components had been added. The reaction was allowed to proceed for at least 2 min. The extent of inhibition of aggregation was expressed as the percentage of the rate of aggregation observed in the absence of inhibitor. […]
The concentration of peptide necessary to inhibit the rate of human platelet aggregation by 50% (IC₅₀) was determined using platelets from 2-4 donors. Determinations were performed in duplicate for each donor.

platelet aggregation = experiment: Platelet aggregation initiated by other agonists; type: cell-based; conditions: aggregation initiated by thrombin, epinephrin, collagen, or platelet activating factor
[2] = Preliminary in vivo antithrombotic studies

Echistatin [Synthetic Echistatin]
IC50 [1]: 0.033 µM | prevention of platelet aggregation (platelet aggregation): prevents aggregation | antithrombotic effect in vivo [2]: very effective antithrombotic agent
